# System: SH-SYSY cell line
# Test: Cytotoxicity, cell viability by MTT test
# Format: cell-based
# Details: SH-SYSY cells
# Description: An SH-SYSY cell line (ATCC) was used to confirm the cytotoxicity of nevirapine. The SH-SYSY cell line was seeded in a 96-well plate, cultured, treated with an increasing concentration (0, 10, 100 μM) of nevirapine, and then incubated at a constant temperature for 24 hours. Thereafter, cell viability was measured using an MTT test method. Cells treated with 0 μM nevirapine were used as the control. ***P<0.001 against the control. Also, in the next experiment, the cytotoxicity of pirenzepine to be used as a reference drug was tested in the same manner as in the cytotoxicity experiment of nevirapine.
structure (smiles),measurement,setting,value
"Cc1ccnc2c1NC(=O)c1cccnc1N2C1CC1 [nevirapine, 11-cyclopropyl-5,11-dihydro-4-methyl-6H-dipyrido[3,2-b:2′,3′-e][1,4]diazepin-6-one]",cell viability compared with the control,"10 μM, 24 hours",not changed significantly
same,decrease in cell viability,"100 μM, 24 hours",approximately 70%
CN1CCN(CC(=O)N2c3ccccc3C(=O)Nc3cccnc32)CC1 [pirenzepine],cell viability compared with the control,0.5 μM,slight decrease
same,decrease in cell viability,10 μM,approximately 60%
